Results from article PMC12809495, “Potential 14-3-3 binding sites in sirtuins reveal extended phosphosite-recognition modes” (Acta Crystallographica Section F: Structural Biology …, 2026).
Where a SMILES comes first, the peptide text is derived from it. [ ]: non-standard residue; d: D form. pS = N[C@@H](COP(=O)(O)O)C(=O)O

Columns and labels:
[1] = target: T1, 14-3-3σ-ΔC (Homo sapiens, UniProt P31947); assay: Isothermal titration calorimetry (ITC); assay type: binding; settings: Fig. 3c; nanoITC, 150 µM 14-3-3σ-ΔC in cell, fourfold-concentrated peptide, 2 µl injections, 25°C, one-site fit; duplicate, error between fits; read-out: apparent Kd, ITC
T1 construct: His6; made in house; host or cells: Escherichia coli BL21 Rosetta (DE3)
T1 sequence (P31947 1-231 limits assumed): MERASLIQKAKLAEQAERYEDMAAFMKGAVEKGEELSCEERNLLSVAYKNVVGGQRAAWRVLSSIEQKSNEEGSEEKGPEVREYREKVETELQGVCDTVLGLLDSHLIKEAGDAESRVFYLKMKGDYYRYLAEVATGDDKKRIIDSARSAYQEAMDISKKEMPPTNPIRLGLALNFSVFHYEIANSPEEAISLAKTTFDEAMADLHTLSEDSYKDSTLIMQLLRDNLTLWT
Protocol: Peptide ligands were freshly prepared in the exact same buffer as was used for the gel-filtration run. Samples were degassed and temperature-equilibrated using a degassing station (TA Instruments). A volume of 250 µl of 14-3-3σ-ΔC protein sample at a concentration of 150 µM was transferred into the sample cell of a nanoITC (TA Instruments) and 50 µl of a fourfold-concentrated phosphorylated peptide was loaded into the injection needle. Multiple injection measurements were carried out at 25°C with a 300 rev min^−1 stirring rate and 300 s spacing between each 2 µl injection. The heat quantity post-injection was determined by integration of the measured peaks. The Sirt1^pS670 peptide behaved best and was measured in duplicate. Subtraction of heat of dilution measurements, peak integration and one-site binding fits were performed with NanoAnalyze (TA Instruments). The reported errors are the errors between fits of the measured duplicates.
Figure 3 Affinity measurements of Sirt1^pS670 and different Sirt3 peptides for 14-3-3σ-ΔC protein using MST and ITC experiments. […] (b) MST experiments of titrations of 14-3-3σ-ΔC with Sirt3^pS105 (squares) or Sirt3^pS103 (two independent runs, filled triangles and triangles) endecamer peptides and, for comparison, with nonphosphoylated Sirt3^S103 peptide (circles).

[2] = target: T2, 14-3-3 isoform gamma (Homo sapiens, UniProt P61981); assay: Label-free microscale thermophoresis (MST) binding, 14-3-3 gamma; settings: 0.6 µM 14-3-3 protein, 25 mM MES pH 6.5, 5 mM MgCl2, 5 mM CaCl2, 25°C, Kd from duplicate measurements, aggr. = no successful experiment
T2 construct: His6; made in house; host or cells: Escherichia coli BL21 Rosetta (DE3)
T2 sequence (P61981 1-247): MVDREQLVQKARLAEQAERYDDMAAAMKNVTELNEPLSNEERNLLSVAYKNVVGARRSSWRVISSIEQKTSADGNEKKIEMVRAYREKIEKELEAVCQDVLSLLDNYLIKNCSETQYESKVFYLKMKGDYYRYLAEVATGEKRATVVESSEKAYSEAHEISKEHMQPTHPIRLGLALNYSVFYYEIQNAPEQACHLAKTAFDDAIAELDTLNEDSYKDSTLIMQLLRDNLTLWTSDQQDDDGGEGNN
Protocol: The binding of phosphorylated sirtuin peptides (Fig. 1 ▸) was analyzed using the change in the intrinsic fluorescence signal of the 14-3-3 proteins measured with label-free microscale thermophoresis using a Nanotemper Monolith NT.LabelFree or NT.115. A typical binding experiment using 0.6 µM 14-3-3 protein was performed in a modified MST buffer consisting of 25 mM MES pH 6.5, 5 mM MgCl2, 5 mM CaCl2. The measurements were performed at 25°C using a LED power of 10–40%. All measurements were performed at least in duplicate, and the results shown are representative measurements individually fitted using GraFit 7 (Erathicus Software, Horley, United Kingdom).
Figure 1 Classification and analysis of sirtuin PSSM results for potential 14-3-3 phosphoserine binding sites. Peptides with a gray background were not analyzed experimentally. Score is the overall PSSM score for the phosphorylation site; rank is the order within the 17 proposed sirtuin binding sites. Conserved residues in the 14-3-3 motifs are marked in green. Residues with restricted (proline) or very flexible (glycine) protein backbone or with a very large side chain (tryptophan) are marked in red. Amino acids with the same or similar hydrophobicity/size are shown in magenta. Kd values from duplicate measurements are colored green for Kd < 100 µM. Fields marked in red indicate no binding or no successful experiment. […]

With `CC(C)C[C@H](NC(=O)[C@@H](N)C(C)C)C(=O)N[C@@H](CO)C(=O)N[C@@H](CO)C(=O)N[C@@H](CO)C(=O)N[C@@H](COP(=O)(O)O)C(=O)N[C@@H](CS)C(=O)NCC(=O)N[C@@H](CO)C(=O)N[C@@H](CC(N)=O)C(=O)N[C@@H](CO)C(=O)O` [Sirt1^pS670] (H-VLSSS[pS]CGSNS-OH) the Kd [1] was 5 ± 4.2 µM and the “Affinity estimates by MicroScale Thermophoresis, 14-3-3 isoform gamma (Kd)” value [2] was “aggr”.
